Results taken from US8895753B2, “S1P receptor modulating agent” (Meiji Seika Pharma Co., Ltd., priority 2011, dated 2014).
Values belong to the compound of their own block, whether it stands above or below them.

Experiments:
[1] = tested on: enterobacterium; test: Stability against enterobacterium (feces / cecum homogenates); type: in vitro ADME; settings: cynomolgus monkey feces and rat cecum homogenates, 3 and 30 μM, 37° C., 24 hours; all conditions
Description: A culture medium was added to fresh feces of a cynomolgus monkey and rat cecum to prepare homogenates. To a homogenate was added the compound of the Example 2, or 1-{4-[5-(4-isopropoxyphenyl)-1,2,4-oxadiazol-3-yl]benzyl}azetidine-3-carboxylic acid (the compound of the Example 29 of Non-Patent Document 5) adjusted at a concentration of 3 and 30 μM, and the mixture was anaerobically cultured at 37° C. for 24 hours. After the cultivation, the concentration of the residual compound in the culture medium was measured on LC-MS.

[2] = tested on: electrocardiogram; test: Evaluation of electrocardiogram in a rat (under anesthesia); type: in vivo
Description: Under anesthesia, femoral artery was cannulated in a 7-11-week-old male SD rat (Charles River Laboratories Japan Inc.) that had been reared for more than one week, connected to a polygraph (NIHON KODEN) via a pressure transducer. Without consciousness, a vehicle (dimethylsulfoxide) or a test compound was intravenously administered. After the administration, blood pressure, the heart rate, and electrocardiogram were monitored for about 10 minutes.

[3] = target: T1, Human S1P1 receptor (Homo sapiens, UniProt P21453); test: Agonist activity at an S1P1 receptor ([35S]-GTPγS exchange reaction, membrane fractions); type: biochemical; settings: read-out: EC50, agonist activity at S1P1 receptor (GTP exchange reaction)
Description: (§1) By using membrane fractions prepared from a human S1P1 receptor expressing cells (Multispan Ltd.), the agonist activity of each test compound was measured by [^35S]-GTPγS exchange reaction in accordance with a standard procedure (Methods in Molecular Biology, Vol. 552, p 143-151 (2009)), and EC50 (nM) of each test compound was computed.

[4] = target: Human S1P3 receptor (Homo sapiens, UniProt Q99500); test: Agonist activity at an S1P3 receptor ([35S]-GTPγS exchange reaction at 1000 nM); type: biochemical; settings: read-out: percent of the maximal agonist activity at S1P3 receptor
Description: as §1
By using membrane fractions prepared from Human S1P3 receptor expressing cells (Multispan Inc.), the agonist activity of the compound in the present invention was measured by a [^35S]-GTPγS exchange reaction at 1000 nM by the similar method of the Experimental Example 2.

[5] = target: T2, Human S1P4 receptor (Homo sapiens, UniProt O95977); test: Agonist activity at an S1P4 receptor (calcium influx); type: cell-based; settings: at 1000 nM; read-out: activity at S1P4 receptor (elevation of intracellular calcium)
T2 sequence (O95977 1-384): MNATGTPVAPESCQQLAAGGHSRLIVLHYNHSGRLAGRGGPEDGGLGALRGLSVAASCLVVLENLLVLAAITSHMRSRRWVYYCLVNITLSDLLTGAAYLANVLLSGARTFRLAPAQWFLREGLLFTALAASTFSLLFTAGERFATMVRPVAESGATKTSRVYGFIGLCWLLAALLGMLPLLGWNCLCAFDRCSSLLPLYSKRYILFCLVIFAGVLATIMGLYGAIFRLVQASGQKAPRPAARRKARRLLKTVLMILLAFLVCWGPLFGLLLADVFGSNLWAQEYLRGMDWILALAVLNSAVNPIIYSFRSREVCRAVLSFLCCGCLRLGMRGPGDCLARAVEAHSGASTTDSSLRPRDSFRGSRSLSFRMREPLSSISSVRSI
Description: By using Human S1P4 receptor expressing cells (Multispan Inc. CG1052-1), the elevation of intracellular calcium concentration via agonist activity by the addition of 1000 nM was measured by Fret method (fluorescence resonance energy transfer).

[6] = target: T1, Human S1P1 receptor; test: Agonist activity at an S1P1 receptor (reporter assay, EDG1-bla/U2OS cells); type: cell-based; set-up: host or cells: U2OS (EDG1-bla/U2OS); settings: S1P maximum response = 100%
Description: Human S1P1 receptor gene recombinant EDG1-bla/U2OS cells (Life Technologies Japan Ltd.) were plated in a 96-well half-sized clear bottom black plate at a density of 10000 cells/32 μL/well, and then the plate was incubated at 37° C. in a 5% CO2 incubator for 48 hours. A culture medium containing each test compound prepared as a 5× concentrate was added at 8 μL/well, and the plate was incubated at 37° C. in a 5% CO2 incubator for 5 hours. The substrate (LiveBLAzer™-FRET B/G substrate (CCF4-AM), Life Technologies Japan Ltd.) prepared as a 6× concentrate was added at 8 μL into each well, and the plate was incubated at room temperature for 2 hours in the dark. The fluorescence intensity of each well was detected using a bottom-reading fluorescence microplate reader (EnVision: ParkinElmer) at one excitation wavelength and 2 wavelengths for fluorescence emission (Ex409 nm, Em460 nm, Em530 nm). The intensity ratio of fluorescence at 460 nm/530 nm was calculated for each well. The maximum response ratio confirmed from the dose response of SIP was expressed as 100%. The concentration of a test compound required to stimulate 50% of its maximal activation was computed as EC50 (nM).

[7] = tested on: blood lymphocytic cells; test: Suppressive effect on circulating lymphocytic cells in a rat; type: in vivo; settings: 6 hours after administration
Description: Under anesthesia, a femoral artery was cannulated in a 7-11-week old male SD rat (Charles River Laboratories Japan Inc.) that had been reared for more than one week. A vehicle (in case of intravascular administration, 10% PEG300-0.01 M KOH saline was used, and in case of oral administration, 0.5% hydroxymethyl cellulose solution was used) or a test compound was administered intravascularly or by gavage administration. Right before the administration or 2, 4, 6 hours after the administration, the number of blood lymphocytic cells was counted by using an automated hematology analyzer XT-1800i or XT-2000i (Sysmex). The count of lymphocytic cells right before the administration was regarded as 100%, and the dose of the test compound that reduced blood lymphocytic cells by 50% of vehicle-treated group at the point of 6 hours after the administration was calculated as ED50 (mg/kg body weight).

[8] = tested on: heart rate; test: Evaluation of the heart rate in a rat (under consciousness); type: in vivo; settings: vascular administration
Description: Under anesthesia, femoral artery was cannulated in a 7-11-week old male SD rat (Charles River Laboratories Japan Inc.) that had been reared for more than one week. Arterial cannula was connected to a pressure transducer, and under consciousness changes in the heart rate were monitored with a polygraph (Nihon Kohden) up to 4 hours after the vascular administration of the vehicle (10% PEG300-0.01M KOH saline) or the test compounds. The dose that lowered the heart rate by 20% was computed as TD20 (mg/kg body weight).

[9] = tested on: electrocardiogram / monophasic action potential (MAP); test: Evaluation of cardiovascular system in a guinea pig; type: in vivo; settings: anesthetized guinea pig, 0.1 mg/kg body weight, infusion
Excerpt: Under anesthesia with 0.5 to 1% of halothane, to a male Hartley guinea-pig (Japan SLC, Inc.) that had been reared for more than one week, a catheter for administration of a drug solution was placed into the left jugular vein, a monophasic action potential (MAP) measurement/pacing catheter was placed into the endothelial lining of the right ventricle, a catheter for measuring blood pressure was placed into the left carotid artery, and the measurement of body surface electrocardiogram (lead II) was conducted. The drug solution was infused for 10 minutes and the measurement was carried out over 60 minutes. Also, 5, 10, 15, 20, 30, 45 and 60 minutes after the administration of the drug solution, pacing was performed (200, 240, 300 bpm), and monophasic action potential (MAP) was measured.

[10] = anesthetized rat, intravenous 0.1 mg/kg body weight

T1 sequence (P21453 whole entry): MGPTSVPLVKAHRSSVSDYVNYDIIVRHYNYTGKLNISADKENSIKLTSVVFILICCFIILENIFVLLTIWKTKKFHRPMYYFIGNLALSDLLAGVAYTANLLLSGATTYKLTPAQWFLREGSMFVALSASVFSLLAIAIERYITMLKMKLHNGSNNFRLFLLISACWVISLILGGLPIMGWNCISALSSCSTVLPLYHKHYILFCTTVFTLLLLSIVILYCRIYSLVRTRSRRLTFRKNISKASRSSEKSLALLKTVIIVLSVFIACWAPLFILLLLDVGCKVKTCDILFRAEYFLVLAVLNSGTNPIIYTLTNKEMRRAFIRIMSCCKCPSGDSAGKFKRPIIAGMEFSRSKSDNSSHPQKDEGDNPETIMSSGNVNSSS
Chain of Human S1P3 receptor (Q99500 whole entry): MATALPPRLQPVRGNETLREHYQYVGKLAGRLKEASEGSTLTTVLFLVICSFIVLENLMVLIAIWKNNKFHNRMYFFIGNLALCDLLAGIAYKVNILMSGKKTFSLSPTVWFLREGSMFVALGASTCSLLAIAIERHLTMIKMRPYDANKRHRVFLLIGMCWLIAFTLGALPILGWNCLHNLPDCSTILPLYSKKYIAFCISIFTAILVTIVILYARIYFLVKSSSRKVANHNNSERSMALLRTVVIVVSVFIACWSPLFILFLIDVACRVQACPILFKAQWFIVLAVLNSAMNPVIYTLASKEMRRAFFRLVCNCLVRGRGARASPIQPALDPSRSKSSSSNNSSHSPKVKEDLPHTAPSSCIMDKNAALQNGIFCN

SMILES: CC(C)Oc1ccc(-c2nc(-c3ccc(CN4CC(C(=O)O)C4)cc3)no2)cc1 [1-{4-[5-(4-isopropoxyphenyl)-1,2,4-oxadiazol-3-yl]benzyl}azetidine-3-carboxylic acid]
residual compound after anaerobic culture with homogenate [1]: ≤ 2% | cardiac arrest (cases) [2, 10]: 1 out of 3 | duration of continuous cardiac arrhythmia (AV block) [2, 10]: 170 s

EC50 [3]: ≤ 10 nM | Emax at 1 µM [4]: < 20% | activation at 1 µM [5]: < 20% | EC50 [6]: ≤ 10 nM
SMILES: COc1cc(-c2ncc(-c3ccc(OC(C)C)c(Cl)c3)s2)ccc1CN1CC(C(=O)O)C1 [Example 64, 1-(4-(5-(3-chloro-4-isopropoxyphenyl)thiazol-2-yl)-2-methoxybenzyl)azetidine-3-carboxylic acid]

SMILES: CCCCCCCCc1ccc(CCC(N)(CO)CO)cc1 [Fingolimod, reference compound]
ED50, dose reducing blood lymphocytic cells by 50% ([7]; gavage administration): 0.2 mg/kg body weight | ED50, dose reducing blood lymphocytic cells by 50% ([7]; vascular administration): 0.06 mg/kg body weight | TD20, dose that lowered the heart rate by 20% ([8]; conscious rat): 0.3 mg/kg body weight | TD20/ED50 ratio ([8]; rat): 5 | MAP90 prolongation effect [9]: recognized | prolonged QT [9]: recognized

SMILES: CCCCCCCCc1ccc(CCC(N)(CO)COP(=O)(O)O)cc1 (centres unmarked) [phosphorylated form of Fingolimod]
duration of continuous cardiac arrhythmia (AV block) ([2]; rat, in vivo, iv, 0.1 mg/kg): 120 s
